In patent publication US20240287130A1, “COMPOUND FOR ALCOHOLIC LIVER INJURY, PREPARATION METHOD, COMPOSITION, FOOD AND USE” (CHENGDU INNOHEPOREM BIOTECH CO., LTD., priority 2021, published 2024):

Key:
[1] = system: mouse alcoholic liver injury model; test: Effect of product (a) on alcoholic liver injury (Example 6): six months alcohol feeding, then one month of intervention in normal liquid feed; type: in vivo, C57 mice; conditions: one month intervention after six months alcohol; for proportion of fat deposition in the total liver area (oil red O staining): non-intervention group 0.68, FIG. 16; for ALT level in serum: normal diet group 12.03, non-intervention group 44.84, FIG. 14
Excerpt: (§1) This experiment used the Lieber-DeCarli alcoholic fatty liver modeling method. Lieber-DeCarli feed was purchased from Nantong Trophic Animal Feed High-Tech Co., Ltd. The specific method is as follows: C57 mice (purchased from TROPHIC Animal Feed High-Tech Co. Ltd, China, the same below) were fed with normal solid maintenance feed, adapted to the feeding environment for at least one week, then were fed with maltodextrin diet for a week of transition, and then fed with Lieber-DeCarli feed. The alcohol concentration of Lieber-DeCarli feed was 3% in the first week, and the alcohol concentration was increased by 0.5% every week until reaching an alcohol concentration of 5%. The animals were continued to be fed with feed containing 5% alcohol. C57 mice were fed with Lieber-DeCarli feed for 12 weeks to establish a model of alcoholic liver injury.
30 C57 mice were subjected to adaptive feeding for 1 week, and then randomly divided into a normal diet group (n=6) and an alcohol diet group (n=24) according to body weight. In the alcohol diet group, a mouse alcoholic liver injury model was established by feeding mice with Lieber-DeCarli feed for 24 weeks according to the method of Example 3. After the modeling was completed, the mice were randomly divided into 4 groups, namely the non-intervention group (EtOH(6m)+Normal(1m), n=6), the zinc glutathione intervention group (EtOH(6m)+Zn(GSH)2(1m), n=6), the zinc intervention group (EtOH(6m)+Zn(1m), n=6), and the glutathione intervention group (EtOH(6m)+GSH(1m), n=6). The remaining normal diet group was named the normal group (Normal (7m) group, n=5).
Different intervention substances were added to the normal liquid feed for 1 month. The feed of the zinc glutathione intervention group was added with Zn(GSH)2SO4 at an amount of 1 mg Zn per 10 mL of feed (GSH was 9.35 mg/10 mL) for one month of intervention. The feed of the zinc intervention group was added with ZnSO4 at an amount of 1 mg Zn per 10 mL of feed. The feed of the glutathione intervention group was added with glutathione at an amount of 9.35 mg GSH per 10 mL of feed.
(§2) At the end of the experiment in each group, the animals were weighed, blood was collected, and materials were collected.
(§3) Blood collection: orbital blood collection was performed.
(§4) Liver: The animals were killed by cervical dislocation. The mice were cut along the midline of the abdomen to expose the abdomen and the liver was then peeled off. The intact liver was peeled off and separated into the different lobes.
(§5) Tissue distribution of each lobe of the liver: The left lobe was separated into three sections and the right lobe was separated into two sections. The first sections of the left lobe and right lobe were used to make pathological sections for histological examination. The second sections of the left lobe and right lobe were used for zinc measurement. The remaining third section of the left lobe was stored in liquid nitrogen for analysis such as molecular detection.
Biochemical analysis of serum: Alanine aminotransferase (ALT) in blood samples was analyzed using a colorimetric method.
Oil red O staining of frozen sections: Frozen sections were stained with ORO stain solution and the nuclei were counterstained with hematoxylin. […] The area of the ORO positive area was measured using Image Pro-Plus 6.0 software, and the ratio of the positive area to the total area was calculated.
(§6) Data processing and statistical analysis: All experimental data herein were analyzed using GraphPad Prime 6 statistical analysis software. Student t test was used for single factor analysis between two groups, and p<0.05 was considered to be statistically different.
Determination method: After blood was collected, the collected whole blood was placed at 25° C. for 30 minutes. After the blood coagulated, it was centrifuged at 3500 rpm for 15 minutes to separate the serum, and various parameters were measured timely. […]

[2] = system: mouse alcoholic liver injury model; test: Effect of product (a) on alcoholic liver injury (Example 4): Lieber-DeCarli alcohol diet, three months of intervention; type: in vivo, C57 mice
Excerpt: as §1
30 C57 mice were subjected to adaptive feeding for 1 week, and then randomly divided into a normal diet group (n=9) and an alcohol diet group (n=21) according to body weight. In the alcohol diet group, a mouse alcoholic liver injury model was established by feeding mice with Lieber-DeCarli feed for 12 weeks according to the method of Example 3. After the modeling was completed, the mice were randomly divided into 3 groups, one of which was the pre-intervention group (EtOH (3m), n=3) (meanwhile, 4 animals were randomly selected from the normal diet group to be control of the pre-intervention group (Normal (3m) group, n=4). The pre-intervention group and the pre-intervention control group were collected immediately after the modeling was completed. The other two groups were the non-intervention group (EtOH (6m), n=10), and the zinc/glutathione intervention group (EtOH(6m)/Zn(GSH)2(3m), n=8) respectively. The remaining normal diet group was named the normal group (Normal (6m) group, n=5).
Zn(GSH)2·SO4 was added to the daily Lieber-DeCarli alcohol diet at the amount of 1 mg Zn/10 mL of feed for three months of invention.
as §2, §3
as §4, with “lobes. The left lobe was separated into three sections using a blade, and the right lobe was separated into two sections.” for “lobes.”
as §5, with “Other lobes were” for “The remaining third section of the left lobe was”, “detection. […]” for “detection.”
Measurement of zinc concentration: The zinc concentration in liver tissue was determined using atomic absorption spectrometry (atomic absorption spectrometer: ICE3500, Thermo Company).
as §6

[3] = EtOH(6 m)/Zn(GSH)2 group, end of experiment

Compound | ALT level relative to the zinc glutathione intervention group [1] | proportion of fat deposition in the total liver area (oil red O staining) [1] | ALT level in serum [1] | fat deposition (oil red O staining of liver) ([2]; EtOH(6m)/Zn(GSH)2(3m) vs non-intervention group, FIG. 9) | Liver weight [2, 3] [g] | Liver weight/final body weight [2, 3] [%] | Final body weight ([2]; EtOH(6 m)/Zn(GSH)2 group, end of experiment, average) [g] | survival rate ([2]; alcohol-fed mice, intervention after modeling, 1 mg Zn/10 mL feed, FIG. 8) | zinc content in the liver ([2]; atomic absorption spectrometry, intervention group, FIG. 12) | area of fat deposition (percentage of fat deposition in the total liver area) ([2]; oil red O staining, vs non-intervention group, FIG. 10) | vesicular steatosis (HE staining) ([2]; vs non-intervention group, FIG. 11)
N[C@@H](CCC(=O)N[C@@H](CS)C(=O)NCC(=O)O)C(=O)O [glutathione, N-(N-L-γ-glutamyl-L-cysteinyl)-glycine] | about 2 times | 0.62 | 22.86 | – | – | – | – | – | – | – | –
[Zn^2+(L-GSH)2]·SO4^2− [Zn(GSH)2·SO4] | – | 0.21 | 8.96 | significantly improved | 1.26 ± 0.25 | 5.62 ± 0.80 | 22.53 ± 1.67 | significantly increased | significantly increased | significantly reduced | significantly reduced
O=S(=O)([O-])[O-].[Zn+2] [zinc, ZnSO4] | about 2 times | 0.36 | 22.03 | – | – | – | – | – | – | – | –
